What was measured:
[1] = target: HEK293 cells that stably express human DAAO (Homo sapiens (Human), UniProt P14920); experiment: Inhibitory activity test at cellular level using DAAO-expressing cells; assay type: cell-based; details: D-alanine substrate
Method: HEK293 cells that stably express human DAAO were suspended in Cellbanker solution at 5×10^6 cells/ml and cryopreserved at −80° C. At the time of measurement, the cells were centrifuged at 1000 rpm for one min and the Cellbanker solution was removed. […] A 4% DMSO buffer solution (50 mM sodium phosphate [pH 7.5], 0.02% CHAPS) of the test compound (4 μL) was added to a 384-well black, low volume plate, the cell suspension (4 μL) was added, and the mixture was incubated at room temperature for 15 min.
Reverse transcription was performed on human normal kidney tissue-derived RNA (Clontech Corp.) using reverse transcriptase (SuperScriptIII, Life Technologies Corporation) and oligo (dT) primer (Life Technologies Corporation) according to the protocol of the kit (Life Technologies Corporation) and cDNA was synthesized. Then, using human DAAO_HindIII_F represented by Sequence No. 1 and human DAAO_BamHI_R represented by Sequence No. 2, a PCR reaction (35 cycles of 98° C. for 15 sec, 55° C. for 15 sec and 68° C. for 1 min 30 sec) was performed using DNA polymerase (PrimeSTAR, TAKARA BIO INC.) and cDNA obtained as above as a template. […] The PCR product was cloned in a cloning vector (pCR2.1-TOPO Cloning Kit, Life Technologies Corporation). The sequence of the insert was determined by the dideoxy sequence method (BigDye Terminator v3.1 Cycle Sequencing Kit; Life Technologies Corporation).
To express the ORF full length of DAAO as a protein, the above-mentioned vector was subjected to an enzyme reaction with restriction enzymes HindIII and BamHI at 37° C. for 3 hr, and the restriction enzyme-treated DNA fragment was purified. The DNA fragment containing the ORF was cloned to HindIII and BamHI sites present in the multiple cloning site of the expression vector (pcDNA3.1(+): Invitrogen Co.), whereby an expression plasmid (hDAAO/pcDNA3.1) was constructed.
Then, HEK293 cells were transfected to obtain the forced expression cell line. The cells were spread on a collagen-coated 24-well plate (Corning) to contain 1.0×10^5 cells per well on the day before transfection and, using Lipofectamine 2000 (Invitrogen) and hDAAO/pcDNA3.1, transfected according to the protocol. Thereafter, subculture was performed several times using 800 μg/mL geneticin, whereby a drug resistant cell line was obtained.
To confirm acquisition of the human DAAO expression cell line, the cells were spread on a collagen-coated 384-well black, clear bottom plate to 2.5×10^4 per well, and the cells were cultured at 37° C. in the presence of 5% CO2 for 24 hr. After culturing, the culture supernatant was removed, and a solution containing flavin adenine dinucleotide was added to Hanks-20 mM Hepes (pH 7.4) buffer to 5.5 μg/mL, added by 20 μL per well to the wells from which the supernatant had been removed, and the mixture was allowed to react at 37° C. in the presence of 5% CO2 for 1 hr.

[2] = target: recombinant human DAAO protein (Homo sapiens (Human), UniProt P14920); experiment: DAAO inhibitory activity test (H2O2 production, Amplex red/HRP fluorescence); assay type: biochemical; details: recombinant human DAAO 15 nM, D-alanine substrate, FAD, pH 7.5
Method: The DAAO inhibitory activity was measured by assaying the amount of hydrogen peroxide (H2O2) produced by reacting DAAO protein with flavin adenine dinucleotide (FAD) and D-alanine. The amount of H2O2 was determined by measuring the fluorescence generated on conversion of Amplex red (manufactured by Invitrogen Co.) into resorufin by the reaction of H2O2 with horseradish peroxidase (HRP).
Escherichia coli strain BL21(DE3) (manufactured by Novagen) was transformed with the constructed human DAAO expression vector, inoculated into LB culture medium containing kanamycin at a final concentration of 20 μg/mL, and shake-cultured at 37° C. overnight. The multiplied transformant was inoculated into Terrific Broth containing kanamycin at a final concentration of 20 μg/mL, and shake-cultured at 37° C. until it reached OD600=3.0. Thereafter, the culture was cooled to 30° C., and expression was induced with 1 mM IPTG. After 20 hours, bacterial pellets were recovered by centrifugation.
The bacterial pellets recovered as above were suspended in a lysis buffer (17 mM sodium pyrophosphate buffer pH 8.3, 100 μM FAD, 1 mM sodium benzoate, 1 mM PMSF, 14 mM β-mercaptoethanol, 0.2 mg/mL lysozyme) and the bacteria were fractured by sonication. The sonicated liquid was centrifuged and the supernatant was recovered. To remove the nucleic acid, to this supernatant were sequentially added NaCl (final concentration 0.5M) and 0.05% ethyleneimine (polymer) and, after thorough mixing, the supernatant was recovered by centrifugation. The supernatant was heat treated at 55° C. for 15 min, and the supernatant was recovered by centrifugation. To this supernatant was added 40% saturated ammonium sulfate and, after thorough mixing, the salt precipitate was recovered by centrifugation. The obtained salt precipitate was redissolved in buffer A (50 mM potassium phosphate buffer pH 7.4, 10% glycerol, 200 μM sodium benzoate, 10 μM FAD, 20% saturated ammonium sulfate), and filtered through a 0.22 μm filter (manufactured by Millipore). The obtained filtrate was applied to a hydrophobic interaction column Butyl-S Sepharose 6 Fast Flow (manufactured by GE Healthcare Life Sciences) and eluted with buffer B (10 mM Tris buffer solution pH 8.0, 200 μM sodium benzoate, 10% glycerol, 10 μM FAD). The eluent was applied to an anion-exchange column, Q Sepharose Fast Flow (manufactured by GE Healthcare Life Sciences) and eluted using an NaCl concentration gradient. The eluate was replaced with buffer B (sic) using Amicon Ultra-15 10 kDa (manufactured by Millipore), and thereafter applied to an anion-exchange column, RESOURCE Q 6 mL (manufactured by GE Healthcare Life Sciences), and eluted with an NaCl concentration gradient. The eluate was concentrated using Amicon Ultra-15 10 kDa, thereafter applied to a HiLoad 26/600 Superdex 200 pg (manufactured by GE Healthcare Life Sciences) gel filtration column equilibrated with buffer C (10 mM potassium phosphate buffer pH 7.4, 0.5M NaCl, 400 μM sodium benzoate, 20 μM FAD), and the DAAO protein dimer fraction was recovered. The recovered DAAO protein was replaced (sic) with buffer D (10 mM trisodium citrate, 20 μM FAD, 400 μM sodium benzoate) using Amicon Ultra-15 10 kDa, concentrated to 10 mg/mL and cryopreserved at −80° C.

Row | Compound | IC50 [2] [nM] | IC50 [1] [nM]
1 | O=c1cc(COc2cccc(F)c2)[nH]nc1O [Example 232] | 2.3 | 13
2 | O=c1[nH]cc(CCC2CCCCC2)cc1O [Example 58] | 44 | 
3 | Cc1cc(C)cc(CCc2cc(O)c(=O)[nH]n2)c1 [Example 40] | 4.7 | 9.8
4 | O=c1[nH]nc(CCc2ccc(OC(F)(F)F)cc2)cc1O [Example 28] | 8.1 | 18
5 | O=c1cc(COc2ccc(F)cc2)[nH]nc1O [Example 231] | 2.9 | 13
6 | Cc1ccccc1CCc1cc(O)c(=O)[nH]n1 [Example 22] | 3.3 | 8.4
7 | O=c1[nH]nc(CCCCc2ccccc2)cc1O [Example 52] | 2.5 | 11
8 | COc1ccc(SCc2cc(=O)c(O)n[nH]2)cc1 [Example 47] | 5.2 | 12
9 | O=c1[nH]nc(CCc2ccc(F)cc2F)cc1O [Example 21] | 2.2 | 5.5
10 | O=c1[nH]nc(CCc2ccc(-c3ccccc3)cc2)cc1O [Example 15] | 1.2 | 16
11 | CC(C)(C)c1ccc(CCc2cc(O)c(=O)[nH]n2)cc1 [Example 25] | 6.6 | 18

Continued, in another order:

Row | IC50 [2] [nM] | Compound | IC50 [1] [nM]
12 | 8.1 | COCCCc1cc(O)c(=O)[nH]n1 [Example 26] | 
13 | 6.9 | CCCCc1cc(O)c(=O)[nH]n1 [Example 29] | 13
14 | 2.5 | Cc1cccc(CCc2cc(O)c(=O)[nH]n2)c1 [Example 20] | 4.6
15 | 6.1 | Cc1ccc(CCc2cc(O)c(=O)[nH]n2)cc1 [Example 13] | 14
16 | 2.3 | O=c1[nH]nc(CCc2cccc3ccccc23)cc1O [Example 56] | 8.8
